The record followed here is patent publication US20060286547A1, “Time-of-addition assay for identifying anti-viral compounds” (priority 2003, published 2006).

SMILES strings stand for the structures.

The subject of the test is HIV-1 (strain 111B). Kind of test: Time-of-addition assay with luminescent cells in 96- and 384-well plates. The format is cell-based. The conditions noted are these: early stages of addition; ATA 5 μM, AMD3100 and T20 1 μM; 96-well and 384-well plates; FIG. 6 and FIG. 7.

Method: A MT4 cell line was used In the present example expressing a luciferase reporter gene under the control of a HIV-1-LTR promoter element. Cells were counted and a cell suspension of 500.000 ml or 350.000 ml was made for use in 96-well or 384 wells, respectively. The cells were centrifuged for 10 minutes at 400 g. Subsequently, cells were infected with at high multiplicity of infection with HIV-1 (strain 111B) at a host cell/virus titer of 1/1. Unabsorbed virus was removed by two washing steps in order to synchronize the infection. After the second washing step, cells were resuspended and the suspensions were distributed in the wells of a micro-titer plate in an amount of 95 μl or 36 μl in a 96-well or a 384 well format, respectively. At predefined time points 5 μl (96 well) and 4 μl (384 well) of compound was added. As compounds to be tested, reference compounds having well known mechanisms of action were included in the plates. […]
ATA was used in a concentration of 5 μM; AMD3100, T20 EFV ad SQV were used in a concentration of 1 μM and TMC143205 was used in a concentration of 1 μM. […] 100 μl Luc-lit™ substrate was added to each well and luminescence was monitored by processing the 96- and 384-well plates in a PerkinElmer-Viewlux™ within 30 minutes. HIV replication was quantified by measuring the luciferase signal.

With `c1cc(CN2CCCNCCNCCCNCC2)ccc1CN1CCCNCCNCCCNCC1` [AMD3100], the “inhibitory activity as a function of time of addition” value was “strong inhibitory activity”.

Regarding `O=C(O)C1=CC(=C(c2ccc(O)c(C(=O)O)c2)c2ccc(O)c(C(=O)O)c2)C=CC1=O` [ATA], the “inhibitory activity as a function of time of addition” value is listed as “strong inhibitory activity”.
